Laboratory results: patent EP0198605A1, “Prophylaxis of pharmacotherapy of liver disorders” (TEIJIN LIMITED, priority 1985, dated 1986)
Like-named read-outs stand apart in the source and are kept apart here.

Assays:
[1] = tested on: hepatic necrocytosis induced by carbon tetrachloride; assay: Hepatic necrocytosis induced by carbon tetrachloride (in vivo), serum GOT and GPT; set-up: species or system SD male rats; details: for Enzyme Activity GOT (U/L) / Enzyme Activity GPT (U/L): 6 administrations, CCl4 0.5 ml/kg i.p.; for inhibiting liver necrocytosis induced by CCl4 (result in words): in vivo, summary of Tables 4 to 6
Protocol: In the evaluation tests, 6 weeks old SD male rats were used. […] The rats were freely fed or supplied with a solid feed and drinking water.
Carbon tetrachloride (CC14) was diluted with an olive oil and was peritoneally injected in each rat at a dosage of 0.5 ml/kg. To the control group, only CC14 diluted with the olive oil and a 5% gum arabic solution containing no active ingredient were administered. Furthermore, only the olive oil but no CC14 was administered to the olive oil injection group in the Tables.
The methincyanine compounds listed in Tables 4 to 6 were administered as follows. Methincyanine compounds were diluted 100 times with dextrose dissolved in 5% gum arabic solutions. The administration schedules were such that the methiocyanine compounds were administered 6 times in total from 5 days before the CC14 injection to the day of the injection.
Blood was sampled from the orbital veniplex of the rat and was allowed to stand at room temperature for one hour. The blood sample was then centrifugally separated at 2800 rpm for 10 minutes. The resultant supernatant was used as a serum sample.
The determination of GOT and GPT in the serum sample was carried out by using a determination kit (available from Boeklinger-Yamanouchi Co.) and the results were recorded in an automatic analyzer (available from FLEXIGEM Co.).

[2] = tested on: hepatic disorders induced by D-galactosamine; assay: Hepatic disorders induced by D-galactosamine in rats (serum GOT, GPT, bilirubin, complement value); type: in vivo, Wister male rats; details: DSCG i.p. 1 mg/kg, GalN 250 mg/kg i.p., serum two days after GalN
Protocol: In the evaluation tests, 8 to 9 weeks old Wister male rats were used. Five rats were used in each test group. The rats were given standard chow and water ad libitum.
D-Galactosamine hydrochloride (GalN) was dissolved in sterilized physiological saline and the pH thereof was adjusted to 7. The resultant solution was peritoneally administered to each rat at a dosage of 250 mg/kg. To one control group, only GalN was injected, and physiological saline was administered to the other control group instead of pionin. Furthermore, only physiological saline but no GaIN was injected to the physiological saline administration group.
The pionin was administered as follows. It is diluted 10, 100, and 1000 times with dextrose and these diluted powders were dissolved in saline. All drugs were intravenously or orally administered at doses of 0.1, 0.5, 1, and 10 pg/kg. The administration was carried out from five days before to the day after the GaIN injection.
The rats were killed two days after the injection of GalN and blood was collected. The blood samples were allowed to stand at room temprature for one hour and serum was then centrifugally separated at 2500 rpm for 10 minutes.
The determination of GOT and GPT in the serum samples was carried out according to a modification of the Reitman-Framkel method [see Amir. J. Clin. Pothil. 28, 56 (1957) and J. Clin. Invest. 34, 131 (1955)], the determination of bilirubin was carried out according to a modification of Jendrassik-Grof method [see Clinical Chemistry, 19, 984-993 (1973)], and the determination of the complement value was carried out according to the Mayer method (see Experimental Immunochemistry, 2, 133-240, 1961).
The results are shown in Table 2 (i.e., intravenous administration of pionin) and Table 3 (i.e., oral administration of pionin). Disodium cromoglycate (i.e., DSCG) was used as a control.

[3] = tested on: hepatic disorders induced by D-galactosamine; assay: as above; type: in vivo, Wister male rats; details: for Bilirubin / Complement value (%) / Enzyme activity GOT (K.U.) / Enzyme activity GPT (K.U.): GalN 250 mg/kg i.p., serum two days after GalN
[4] = tested on: rats; details: oral, cited from earlier work
[5] = tested on: rat liver cells; assay: Hepatic necrocytosis induced by carbon tetrachloride (in vitro), trypan blue exclusion test; type: cell-based
Protocol: Liver cells were prepared according to a method disclosed in Nakamura et al "Proteins, Nucleic Acids, and Enzymes" Vol. 24, pages 55-76 (1981). That is, the rat liver cells, which were previously peritoneally treated with phenobarbital at 80 mg/kg/day for 3 days, were collected by centrifugal separation after being subjected to 0.05% collagenase perfusion.
The liver cells thus obtained were suspended in a William's E culture medium containing 10% fetal calf serum, dexamethasone (10^-6 M) and insulin (0.02 unit/ml). A 3 ml amount of the cell dispersion having a cell content of 5 x 10^S cells/ml was placed in a 25 mm Falcon dish and was then incubated at a temperature of 37°C under an atmosphere of 5% C02 and 95% air for 3 hours. After 3 hours incubation, the number of surviving liver cells in the incubated dish was measured according to a trypan blue exclusion test. The average value thereof was used as a control value for the survival percentage of the liver cells in the pre-incubation.
Then, a culture medium containing 2-[2-(3-heptyl-4-methyl-4-thiazolin-2-ylidene) methyll-3-heptyl thiazolinium iodide (i.e., pionin) dissolved in ethanol was substituted after removing non-adhesive cells and was then incubated for a further one hour. The concentrations of pionin in the culture medium were 0.94 x 10^-6, 1.8x10^-7, 1x10^-8, 1x10^-9, and I x 10^-10 mole and, as a control or comparative test, the culture medium itself, the culture medium containing 0.5% of ethanol, and the culture medium containing 0.25 µm/ml of carbon tetrachloride were used.
Then, 0.25 pm/ml of carbon tetrachloride was added to each culture dish and the incubation was carried out for a further 3 hours under the same conditions mentioned above. No further carbon tetrachloride was added to the comparative culture containing carbon tetrachloride. After 3 hours incubation, the number of survival liver cells was measured according to a trypan blue exclusion test. The percentage ratio of the mean survival number to the survival number of the above-mentioned pre-incubation was then calculated.
The results are shown in Table 1, in which the mean survival cell percentage (%) and standard deviation thereof in the culture dish containing 4 to 29 liver cells (i.e., N). Statistical significance was evaluated by Student's t-test.

[6] = Table 2 experiment, DSCG i.p. 1 mg/kg
[7] = Table 3 experiment, DSCG i.p. 1 mg/kg
[8] = Table 2, intravenous, 0.1 µg/kg
[9] = Table 2, intravenous, 0.5 µg/kg

## CCCCCCCCCCCCN1C(C)=CSC1=Cc1scc(C)[n+]1CCCC [Compound of Example 1, 2-[2-(3-dodecyl-4-methyl-4-thiazolin-2-ylidene)methyl]-3-butyl-4-methyl thiazolinium iodide]
[1]; Table 6, oral, 10 µg/kg
  Enzyme Activity GOT (U/L): 627 ± 92 U/L
  Enzyme Activity GPT (U/L): 198 ± 37 U/L
[1]
  inhibiting liver necrocytosis induced by CCl4 (result in words): strong inhibiting activities against liver necrocytosis induced by CC14 when compared with pionin

## CCCCCCCCCCCCN1C(C)=CSC1=Cc1scc(C)[n+]1CC [Compound of Example 3, 2-[2-(3-dodecyl-4-methyl-4-thiazolin-2-ylidene)methyl]-3-ethyl-4-methyl thiazolinium iodide]
[1]; Table 5, oral, 10 µg/kg
  Enzyme Activity GOT (U/L): 435 ± 67 U/L
  Enzyme Activity GPT (U/L): 107 ± 18 U/L

## CCCCCCC[n+]1cc(C)sc1C=C1SC=C(C)N1CCCC [Compound of Example 4, 2-[2-(3-butyl-4-methyl-4-thiazolin-2-ylidene)methyl]-3-heptyl-5-methyl thiazolinium iodide]
[1]; Table 5, oral, 10 µg/kg
  Enzyme Activity GOT (U/L): 386 ± 50 U/L
  Enzyme Activity GPT (U/L): 118 ± 21 U/L

## CCCCCCC[n+]1c(C=C2SC=C(C)N2CCCC)sc(C)c1C [Compound of Example 5, 2-[2-(3-butyl-4-methyl-4-thiazolin-2-ylidene)methyl]-3-heptyl-4,5-dimethyl thiazolinium iodide]
[1]; Table 5, oral, 10 µg/kg
  Enzyme Activity GOT (U/L): 393 ± 59 U/L
  Enzyme Activity GPT (U/L): 135 ± 29 U/L

## CCCCCCCCCCN1C(C)=CSC1=Cc1scc(C)[n+]1CCCC [Compound of Example 8, 2-[2-(3-decyl-4-methyl-4-thiazolin-2-ylidene)methyl]-3-butyl-4-methylthiazolinium iodide]
[1]; Table 5, oral, 10 µg/kg
  Enzyme Activity GOT (U/L): 310 ± 68 U/L
  Enzyme Activity GPT (U/L): 99 ± 27 U/L

## O=C(O)c1cc(=O)c2c(OCC(O)COc3cccc4oc(C(=O)O)cc(=O)c34)cccc2o1 [DSCG, Disodium cromoglycate, reference compound]
[2]; Table 2 experiment
  Enzyme activity GPT (K.U.): 220 ± 20 K.U.
[2]; Table 3 experiment
  Bilirubin: 0.21 mg/dL
  Enzyme activity GOT (K.U.): 480 ± 50 K.U.
[3]; [6]
  Bilirubin: 0.29 mg/dL
  Complement value (%): 88.4%
  Enzyme activity GOT (K.U.): 400 ± 42 K.U.
[3]; [7]
  Complement value (%): 80.4%
  Enzyme activity GPT (K.U.): 230 ± 33 K.U.

## CCCCCCCN1C(C)=CSC1=Cc1scc(C)[n+]1CCCCCCC [Pionin, 2-[2-(3-heptyl-4-methyl-4-thiazolin-2-ylidene)methyl]-3-heptyl-4-methyl thiazolinium iodide]
[4]; female rats
  LD50: 503 mg/kg
[4]; male rats
  LD50: 460 mg/kg
[5]; Rattus norvegicus, CCl4 + Pionin 0.94 x 10^-6 M, 3 hours after CCl4, mean ± standard deviation, read-out: Survival ratio (%)
  viability at 0.94 µM: 43.6 ± 11.6%
[5]; Rattus norvegicus, CCl4 + Pionin 1 x 10^-8 M, 3 hours after CCl4, mean ± standard deviation, read-out: Survival ratio (%)
  viability at 0.01 µM: 63.5 ± 19%
[5]; Rattus norvegicus, CCl4 + Pionin 1 x 10^-9 M, 3 hours after CCl4, mean ± standard deviation, read-out: Survival ratio (%)
  viability at 0.001 µM: 63.4 ± 6.8%
[5]; Rattus norvegicus, CCl4 + Pionin 1 x 10^-10 M, 3 hours after CCl4, mean ± standard deviation, read-out: Survival ratio (%)
  viability at 0.0001 µM: 63.2 ± 23%
[5]; Rattus norvegicus, CCl4 + Pionin 1.8 x 10^-7 M, 3 hours after CCl4, mean ± standard deviation, read-out: Survival ratio (%)
  viability at 0.18 µM: 47.1 ± 8.1%
[5]; in vitro, summary of Table 1
  inhibiting liver necrocytosis (result in words): has an activity capable of inhibiting liver necrocytosis
[1]; Table 4, oral, 1 µg/kg
  Enzyme Activity GOT (U/L): 678.3 ± 76.5 U/L
  Enzyme Activity GPT (U/L): 209.0 ± 31.2 U/L
[1]; Table 4, oral, 3 µg/kg
  Enzyme Activity GOT (U/L): 754.5 ± 108.8 U/L
  Enzyme Activity GPT (U/L): 269.7 ± 50.3 U/L
[1]; Table 4, oral, 10 µg/kg
  Enzyme Activity GOT (U/L): 559.2 ± 56.6 U/L
  Enzyme Activity GPT (U/L): 165.8 ± 25.9 U/L
[1]; Table 4, oral, 30 µg/kg
  Enzyme Activity GOT (U/L): 946.8 ± 110.6 U/L
  Enzyme Activity GPT (U/L): 311.4 ± 49.4 U/L
[1]; Table 6, oral, 10 µg/kg
  Enzyme Activity GOT (U/L): 807 ± 172 U/L
  Enzyme Activity GPT (U/L): 251 ± 83 U/L
[1]
  inhibiting liver necrocytosis induced by CCl4 (result in words): has an activity capable of inhibiting liver necrocytosis induced by CCl4
[3]; [8]
  Bilirubin: 0.51 mg/dL
  Complement value (%): 88.2%
  Enzyme activity GOT (K.U.): 550 ± 160 K.U.
  Enzyme activity GPT (K.U.): 510 ± 62 K.U.
[3]; [9]
  Bilirubin: 0.35 mg/dL
  Complement value (%): 96.6%
  Enzyme activity GOT (K.U.): 420 ± 30 K.U.
  Enzyme activity GPT (K.U.): 300 ± 55 K.U.
[3]; Table 2, intravenous, 1 µg/kg
  Bilirubin: 0.44 mg/dL
  Complement value (%): 91.2%
  Enzyme activity GOT (K.U.): 780 ± 29 K.U.
  Enzyme activity GPT (K.U.): 600 ± 40 K.U.
[3]; Table 2, intravenous, 10 µg/kg
  Bilirubin: 0.77 mg/dL
  Complement value (%): 87.6%
  Enzyme activity GOT (K.U.): 1036 ± 50 K.U.
  Enzyme activity GPT (K.U.): 980 ± 39 K.U.
[3]; Table 3, oral, 0.1 µg/kg
  Bilirubin: 0.77 mg/dL
  Complement value (%): 86.1%
  Enzyme activity GOT (K.U.): 1200 ± 198 K.U.
  Enzyme activity GPT (K.U.): 1003 ± 87 K.U.
[3]; Table 3, oral, 0.5 µg/kg
  Bilirubin: 0.36 mg/dL
  Complement value (%): 91.1%
  Enzyme activity GOT (K.U.): 622 ± 100 K.U.
  Enzyme activity GPT (K.U.): 550 ± 51 K.U.
[3]; Table 3, oral, 1 µg/kg
  Bilirubin: 0.55 mg/dL
  Complement value (%): 92.3%
  Enzyme activity GOT (K.U.): 710 ± 30 K.U.
  Enzyme activity GPT (K.U.): 440 ± 13 K.U.
[3]; Table 3, oral, 10 µg/kg
  Bilirubin: 0.88 mg/dL
  Complement value (%): 88.8%
  Enzyme activity GOT (K.U.): 1350 ± 136 K.U.
  Enzyme activity GPT (K.U.): 1200 ± 188 K.U.
[3]; summary of Tables 2 and 3
  inhibition of liver disorders induced by D-galactosamine (result in words): can inhibit liver disorders induced by D-galactosamine
